How the values were obtained:
[1] = target: human opioid receptor-like (ORL-1) (Homo sapiens, UniProt P41146); experiment: In vitro ORL-1 receptor [35S]GTPγS functional assay; format: biochemical
[2] = target: human kappa opioid receptor (Homo sapiens, UniProt P41145); experiment: In vitro kappa-opioid receptor binding assay ([3H]-U69,593 displacement)
human CYP2D6 = human CYP2D6 (Homo sapiens, UniProt P10635); experiment: Cytochrome P450 2D6 inhibition (dextromethorphan O-demethylation, pooled human hepatic microsome)
human CYP2D6, sequence (P10635 whole entry): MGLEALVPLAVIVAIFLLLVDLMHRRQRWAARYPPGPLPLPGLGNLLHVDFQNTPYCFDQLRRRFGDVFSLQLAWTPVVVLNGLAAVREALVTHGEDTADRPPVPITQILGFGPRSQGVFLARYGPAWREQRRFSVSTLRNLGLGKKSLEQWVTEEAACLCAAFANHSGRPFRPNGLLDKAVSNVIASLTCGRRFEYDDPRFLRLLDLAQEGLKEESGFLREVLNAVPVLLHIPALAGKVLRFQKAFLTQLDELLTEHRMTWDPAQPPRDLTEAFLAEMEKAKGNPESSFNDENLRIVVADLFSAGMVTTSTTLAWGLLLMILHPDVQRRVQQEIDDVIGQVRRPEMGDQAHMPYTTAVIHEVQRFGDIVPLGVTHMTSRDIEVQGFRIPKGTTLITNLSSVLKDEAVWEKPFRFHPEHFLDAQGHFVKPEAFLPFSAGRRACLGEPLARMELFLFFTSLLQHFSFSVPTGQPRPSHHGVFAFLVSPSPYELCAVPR

human opioid receptor-like (ORL-1), sequence (P41146 whole entry): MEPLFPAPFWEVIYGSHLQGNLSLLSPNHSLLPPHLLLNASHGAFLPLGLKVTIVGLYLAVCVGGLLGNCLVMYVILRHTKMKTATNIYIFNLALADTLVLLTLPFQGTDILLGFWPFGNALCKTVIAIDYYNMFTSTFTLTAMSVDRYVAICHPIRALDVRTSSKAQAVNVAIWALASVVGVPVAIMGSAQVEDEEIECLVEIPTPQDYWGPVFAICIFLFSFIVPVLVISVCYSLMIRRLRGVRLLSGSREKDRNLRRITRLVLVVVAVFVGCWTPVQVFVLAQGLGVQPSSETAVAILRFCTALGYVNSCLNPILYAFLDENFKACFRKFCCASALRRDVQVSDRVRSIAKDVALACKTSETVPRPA
human kappa opioid receptor, sequence (P41145 whole entry): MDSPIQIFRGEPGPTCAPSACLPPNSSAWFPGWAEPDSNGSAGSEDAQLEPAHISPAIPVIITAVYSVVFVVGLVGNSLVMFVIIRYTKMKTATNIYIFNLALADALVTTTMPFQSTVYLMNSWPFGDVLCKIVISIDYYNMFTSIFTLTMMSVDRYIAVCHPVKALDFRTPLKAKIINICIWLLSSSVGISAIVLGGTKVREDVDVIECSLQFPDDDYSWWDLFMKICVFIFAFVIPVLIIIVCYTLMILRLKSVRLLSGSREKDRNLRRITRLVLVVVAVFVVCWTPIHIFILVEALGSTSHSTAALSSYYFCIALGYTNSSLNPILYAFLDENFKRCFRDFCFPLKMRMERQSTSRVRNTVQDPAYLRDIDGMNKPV

Structure (SMILES): O=c1cnn(-c2nc3ccccc3n([C@H]3C[C@H]4COC[C@@H](C3)N4[C@@H]3C[C@@H]4CCCC[C@@H](C4)C3)c2=O)c(=O)[nH]1 [Compound P9b, 2-(4-((1R,5S,7 S)-9-((1R,6S,8s)-bicyclo[4.3.1]decan-8-yl)-3-oxa-9-azabicyclo[3.3.1]nonan-7-yl)-3-oxo-3,4-dihydroquinoxalin-2-yl)-1,2,4-triazine-3,5(2H,4H)-dione]
- EC50 [1]: 104 ± 43 nM
- Ki [2]: 13100 nM
- IC50 (human CYP2D6): > 20000 nM

Structure (SMILES): O=C(O)Cn1cccc(-c2nc3ccccc3n([C@H]3C[C@H]4CC[C@@H](C3)N4[C@H]3C[C@@H]4CCC[C@@H](C4)C3)c2=O)c1=O [Q13a(iii), 2-(3-(4-((1R,3R,5S)-8-((1R,3r,5S)-bicyclo[3.3.1]nonan-3-yl)-8-azabicyclo[3.2.1]octan-3-yl)-3-oxo-3,4-dihydroquinoxalin-2-yl)-2-oxopyridin-1(2H)-yl)acetic acid]
- EC50 [1]: 255 ± 42 nM
- IC50 (human CYP2D6): > 20000 nM

Structure (SMILES): O=c1[nH]cc(F)cc1-c1nc2ccccc2n([C@H]2C[C@H]3CCC[C@@H](C2)N3[C@H]2C[C@@H]3CCC[C@@H](C3)C2)c1=O [R16a(i), 1-((1R,1′R,3r,3′R,5S,5′S)-[3,9′-bi(9′-azabicyclo[3.3.1]nonan)]-3′-yl)-3-(5-fluoro-2-oxo-1,2-dihydropyridin-3-yl)quinoxalin-2(1H)-one]
- EC50 [1]: 1610 ± 441 nM
- IC50 (human CYP2D6): > 20000 nM

— patent US9085561B2, “Cyclic urea- or lactam-substituted quinoxaline-type piperidines as ORL-1 modulators” (priority 2012, dated 2015)
